# Assay results as given in patent publication US5166379A, “Synthesis of compounds with biological activity, and methods of use” (Harbor Branch Oceanographic Institution, Inc., priority 1990, dated 1992).
# Where two headings read alike, the source gives them in different places.
# Columns and labels:
# [1] = Lymphocyte Viability Assay (LCV); assay type: cell-based, murine; conditions: mouse, splenocytes, read-out: % LCV (percentage of positive control)
# Description: II. Lymphocyte Viability Assay
# 1. Compounds were similarly tested in parallel with the MLR to determine their toxic effects on lymphoid cells using the lymphocyte viability assay (LCV).
# (§1) 2. Serial, log10 dilutions of the pure compound were made in absolute ethanol, and 10 μl of each dilution was added to wells of microtiter test plates, and allowed to dry.
# 3. Murine splenocyte suspensions were prepared from BALB/c mice. […] The cell concentrations were adjusted to 2.5×10^6 cells/ml.
# 4. A volume of 0.2 ml of the splenocyte suspension was added to replicate test wells. Positive control wells received splenocyte suspensions in the absence of the test compounds.
# 5. Plates were incubated at 37° C. for 86 hours. At the end of the incubation period, a volume of 75 μl of a 2.0 mg/ml solution of MTT was added to each well, and the plates were returned to the incubator for an additional 5 hours.
# 6. The supernatants from each microwell were then removed, and a volume of 200 μl of isopropanol was added and the contents mixed.
# 7. Values were obtained by comparing the optical densities (determined at 570 and 650 nm) of wells containing the test compounds with those of wells containing cells and medium only (positive control). The results are expressed as a percentage of the positive control.
# 8. Replicate counts were averaged, and the data reported as a percentage of the positive control. An LCV value of less than 60% of the positive control is an indication of cytotoxicity of the test compounds for lymphoid cells.
# [2] = tested on: graft vs host reaction in CB6F1 mice grafted with BALB/c splenocytes; test: Graft vs. Host (GVHR) in vivo activity; conditions: for % Suppression / Stim. Index (spleen index): i.p.
# Description: III. Graft vs. Host (GVHR) In Vivo Activity
# 1. Donor mice (BALB/c) were sacrificed, spleens removed, and spleen cell suspensions prepared in tissue culture medium.
# 2. The above splenocyte suspension was adjusted to 10.0×10^7 cells/ml.
# 3. Mice were treated with varying dosages of the test compound. […] Treatment consisted of intraperitoneal injections, daily for 7 days. Dosages were calculated on a mg per kg body weight basis.
# 4. On day 1 of the first treatment regimen, recipient mice (CB6) were injected intraperitoneally with 0.50 ml (50.0×10^6) of the donor (BALB/c) splenocyte suspension.
# 5. Controls consisted of the following:
# POS--mice receiving BALB/c splenocytes (Positive Control)
# SYN--mice receiving CB6 splenocytes (Syngeneic Control)
# CYP--mice receiving Cyclophosphamide (100 mg/kg) and BALB/c splenocytes
# 6. At the end of five days, recipient mice were sacrificed, weighed, and spleens removed and weighed.
# 7. A spleen index of 1.0 was assigned to the mean spleen weights (adjusted to body weight) of the SYN controls. The spleen index of treated mice was determined by comparing the spleen weights of those mice with that of the […]. […] As a general rule, a spleen index of less than the positive control is indicative of an immunosuppressive (ID) compound.
# ^a CB6F1 mice (5 mice per group) were grafted with 5 ×
# 10^7 BALB/c spelnocytes, i.p. on Day 0. Groups were injected, ii.p.,
# with drug (or vehicle) on Days 1-6. Positive designates grafted mice
# receiving vehicle alone.
# ^b Number of surviving mice at end of experiment.
# (Stimulation Index of Syngeneic group (CB6F1 ->CB6F1) = 100
# P388 cells = test: Antiproliferative effects against P388 cells (antitumor, MTT); assay type: cell-based; conditions: Mus musculus, P388, 48 hour exposure
# Description: IV. Antitumor Methodology
# To assess the antiproliferative effects against P388 cells, 200 μl cultures (96-well tissue culture plates, Nunc, Denmark) were established at 1×10^5 cells/ml in drug-free medium or medium containing the pure compounds/crude extracts at a final dilution or 1:500 and at various concentrations. Solvent for all dilutions was methanol, which was removed from plates under vacuum. All experimental cultures were initiated in media containing Gentamicin sulfate (50 μg/ml; Schering Corporation, Kenilworth, NJ).
# To quantitate the effects of pure compounds/crude extracts on cell proliferation, 75 μl of warm growth medium containing 5 mg/ml MTT was added to each well, cultures were returned to the incubator, and were left undisturbed for 90 minutes. To spectrophotometrically quantitate formation of reduced formazan, plates were centrifuged (900×g, 5 minutes), culture fluids removed by aspiration, and 200 μl of acidified isopropanol (2 ml concentrated HCl/liter isopropanol) added per well. The absorbance of the resulting solutions were measured at 570 nm with a plate reader (MR700 Microplate Reader, Dynatech Laboratories, Chantilly, VA).
# [3] = tested on: murine splenocyte suspensions (BALB/c and C57BL/6J mice); test: Mixed Lymphocyte Reaction (MLR); assay type: cell-based; conditions: Mus musculus, Splenocyte, read-out: % MLR (percentage of positive control)
# Description: I. Mixed Lymphocyte Reaction
# 1. Murine splenocyte suspensions were prepared separately from BALB/c and C57BL/6J mice. […] The cell concentrations were adjusted to 2.5×10^6 cells/ml. Aliquots of each cell population were removed to separate tubes, and the remaining two cell suspensions combined to one tube.
# as §1
# 3. A volume of 0.2 ml of the combined splenocyte suspensions was added to triplicate test wells. Positive control wells received combined splenocyte suspensions in the absence of the test compounds. Negative control wells consisted of separate (not mixed) splenocyte suspensions cultured in the absence of the test compounds.
# 4. Plates were incubated in 5% CO2 at 37° C. for 86 hours.
# 5. A volume of 0.05 ml of ^3 H-thymidine (20 μCi/ml) was added to each well, and the plates were incubated in 5% CO2 at 37° C. for an additional 5 hours.
# 6. The contents of each well of the microtiter plates were harvested onto glass fiber filter strips, and the resulting filter discs placed in scintillation vials to which 2.0 ml of scintillation fluid was added.
# 7. The amount of incorporated ^3 H-thymidine was determined by counting the vials in a liquid scintillation counter.
# 8. Triplicate counts were averaged, and the data reported as a percentage of the positive control.
compound,measurement,setting,value
C#CC(O)/C=C/CCCCCCCCCCCCCCC (stereo not shown) [CH3 (CH2)14 CH=CH--CHOH--C≡CH],viability,[1]; 0.05 μg/ml,63%
same,viability,[1]; 0.2 μg/ml,42%
same,viability,[1]; 0.8 μg/ml,20%
same,viability,[1]; 3.1 μg/ml,19%
same,viability,[1]; 12.5 μg/ml,19%
same,viability,[1]; 50 μg/ml,11%
same,% Suppression,[2]; 25.0 mg/kg,45%
same,Stim. Index (spleen index),[2]; 25.0 mg/kg,1.63 ± .25
same,% Suppression,[2]; 50.0 mg/kg,25%
same,Stim. Index (spleen index),[2]; 50.0 mg/kg,1.86 ± .18
same,% Suppression,[2]; 100 mg/kg,0%
same,Stim. Index (spleen index),[2]; 100 mg/kg,2.35 ± .15
same,% Suppression,[2]; 150.0 mg/kg,81%
same,Stim. Index (spleen index),[2]; 150.0 mg/kg,1.22 ± .03
same,"suppression of the GVHR (splenomegaly response), in words","[2]; mouse, in vivo",could mediate the suppression of the GVHR
same,IC50,P388 cells,9.4 µg/mL
same,activity at 0.05 µg/mL,[3]; 0.05 μg/ml,0%
same,activity at 0.2 µg/mL,[3]; 0.2 μg/ml,0%
same,activity at 0.8 µg/mL,[3]; 0.8 μg/ml,0%
same,activity at 3.1 µg/mL,[3]; 3.1 μg/ml,0%
same,activity at 12.5 µg/mL,[3]; 12.5 μg/ml,0%
same,activity at 50 µg/mL,[3]; 50 μg/ml,0%
